# Results: US10570129B2 (Zoetis Services LLC, priority 2015, dated 2020)
# Columns and labels:
# Haemonchus contortus L3 = assay: microbe, parasite or virus in culture; type: cell-based; details: Haemonchus contortus, 96 h, read-out: HcL3 Minimal Effective Concentration (MEC)
# D. immitis microfilariae = assay: Dirofilaria immitis, microfilariae (DiMF) in vitro motility assay; type: cell-based; details: Dirofilaria immitis, 72 h, read-out: DiMF minimally effective dose (MEC)
SMILES,minimal effective concentration (Haemonchus contortus L3) [µM],minimal effective concentration (D. immitis microfilariae) [µM]
"O=C(NCc1ccnc(Cl)c1)n1c2c(c3cc(Cl)ccc31)CN(C/C=C/c1ccc(Cl)cc1)CC2 [Example 242, (E)-8-chloro-2-(3-(4-chlorophenyl)allyl)-N-((2-chloropyridin-4-yl)methyl)-1,2,3,4-tetrahydro-5H-pyrido[4,3-b]indole-5-carboxamide]",0.7,10
"O=C(NCc1ccnc(Cl)c1)n1c2c(c3cc(Cl)ccc31)CN(C/C=C/c1ccc(Cl)c(Cl)c1)CC2 [Example 243, (E)-8-chloro-N-((2-chloropyridin-4-yl)methyl)-2-(3-(3,4-dichlorophenyl)allyl)-1,2,3,4-tetrahydro-5H-pyrido[4,3-b]indole-5-carboxamide]",1.3,10
"O=C(NCc1ccnc(Cl)c1)n1c2c(c3cc(Cl)ccc31)CN(C/C=C/c1ccc(F)cc1)CC2 [Example 244, (E)-8-chloro-N-((2-chloropyridin-4-yl)methyl)-2-(3-(4-fluorophenyl)allyl)-1,2,3,4-tetrahydro-5H-pyrido[4,3-b]indole-5-carboxamide]",0.7,10
"O=C(NCc1ccnc(Cl)c1)n1c2c(c3cc(Cl)ccc31)CN(C/C=C/c1ccc(OC(F)(F)F)cc1)CC2 [Example 245, (E)-8-chloro-N-((2-chloropyridin-4-yl)methyl)-2-(3-(4-(trifluoromethoxy)-phenyl)allyl)-1,2,3,4-tetrahydro-5H-pyrido[4,3-b]indole-5-carboxamide]",3.3,11.9
"O=C(NCc1ccnc(Cl)c1)n1c2c(c3cc(Cl)ccc31)CN(C/C=C/c1ccc(C(F)(F)F)cc1)CC2 [Example 246, (E)-8-chloro-N-((2-chloropyridin-4-yl)methyl)-2-(3-(4-(trifluoromethyl)-phenyl)allyl)-1,2,3,4-tetrahydro-5H-pyrido[4,3-b]indole-5-carboxamide]",3.3,10
"O=C(NCc1ccnc(Cl)c1)n1c2c(c3cc(Cl)ccc31)CN(Cc1ccc3cc(Cl)ccc3n1)CC2 [Example 247, 8-chloro-N-((2-chloropyridin-4-yl)methyl)-2-((6-chloroquinolin-2-yl)methyl)-1,2,3,4-tetrahydro-5H-pyrido[4,3-b]indole-5-carboxamide]",1,1.8
"O=C(NCc1ccnc(Cl)c1)n1c2c(c3cc(Cl)ccc31)CN(C/C=C/c1ccncc1)CC2 [Example 248, (E)-8-chloro-N-((2-chloropyridin-4-yl)methyl)-2-(3-(pyridin-4-yl)allyl)-1,2,3,4-tetrahydro-5H-pyrido[4,3-b]indole-5-carboxamide]",0.4,0.5
"O=C(NCc1ccnc(F)c1)n1c2c(c3cc(Cl)ccc31)CN(C/C=C/c1ccc(Cl)c(F)c1)CC2 [Example 254, (E)-8-chloro-2-(3-(4-chloro-3-fluorophenyl)allyl)-N-((2-fluoropyridin-4-yl)methyl)-1,2,3,4-tetrahydro-5H-pyrido[4,3-b]indole-5-carboxamide]",3.3,100
"O=C(NCc1ccnc(F)c1)n1c2c(c3cc(Cl)ccc31)CN(C/C=C/c1ccc(Cl)cc1F)CC2 [Example 255, (E)-8-chloro-2-(3-(4-chloro-2-fluorophenyl)allyl)-N-((2-fluoropyridin-4-yl)methyl)-1,2,3,4-tetrahydro-5H-pyrido[4,3-b]indole-5-carboxamide]",0.3,18.2
"O=C(NCc1ccnc(F)c1)n1c2c(c3cc(Cl)ccc31)CN(C/C=C/c1ccc(F)cc1Cl)CC2 [Example 256, (E)-8-chloro-2-(3-(2-chloro-4-fluorophenyl)allyl)-N-((2-fluoropyridin-4-yl)methyl)-1,2,3,4-tetrahydro-5H-pyrido[4,3-b]indole-5-carboxamide]",0.2,10
"O=C(NCc1ccnc(F)c1)n1c2c(c3cc(Cl)ccc31)CN(C/C=C/c1ccc(F)cc1F)CC2 [Example 257, (E)-8-chloro-2-(3-(2,4-difluorophenyl)allyl)-N-((2-fluoropyridin-4-yl)methyl)-1,2,3,4-tetrahydro-5H-pyrido[4,3-b]indole-5-carboxamide]",0.2,5.7
"O=C(NCc1ccnc(F)c1)n1c2c(c3cc(Cl)ccc31)CN(C/C=C/c1ccc(F)c(Cl)c1)CC2 [Example 258, (E)-8-chloro-2-(3-(3-chloro-4-fluorophenyl)allyl)-N-((2-fluoropyridin-4-yl)methyl)-1,2,3,4-tetrahydro-5H-pyrido[4,3-b]indole-5-carboxamide]",10,100
"O=C(NCc1ccnc(F)c1)n1c2c(c3cc(Cl)ccc31)CN(C/C=C/c1ccc(F)c(F)c1)CC2 [Example 259, (E)-8-chloro-2-(3-(3,4-difluorophenyl)allyl)-N-((2-fluoropyridin-4-yl)methyl)-1,2,3,4-tetrahydro-5H-pyrido[4,3-b]indole-5-carboxamide]",0.1,3.3
"O=C(NCc1ccnc(F)c1)n1c2c(c3cc(Cl)ccc31)CN(C/C=C/c1ccc(Cl)cc1)CC2 [Example 260, (E)-8-chloro-2-(3-(4-chlorophenyl)allyl)-N-((2-fluoropyridin-4-yl)methyl)-1,2,3,4-tetrahydro-5H-pyrido[4,3-b]indole-5-carboxamide]",0.4,10
"O=C(NCc1ccnc(F)c1)n1c2c(c3cc(Cl)ccc31)CN(C/C=C/c1ccc(Cl)c(Cl)c1)CC2 [Example 261, (E)-8-chloro-2-(3-(3,4-dichlorophenyl)allyl)-N-((2-fluoropyridin-4-yl)methyl)-1,2,3,4-tetrahydro-5H-pyrido[4,3-b]indole-5-carboxamide]",1,10
"O=C(NCc1ccnc(Cl)c1)n1c2c(c3cccc(Cl)c31)CN(C/C=C/c1ccc(C(F)(F)F)cn1)CC2 [Example 266, (E)-6-chloro-N-((2-chloropyridin-4-yl)methyl)-2-(3-(5-(trifluoromethyl)-pyridin-2-yl)allyl)-1,2,3,4-tetrahydro-5H-pyrido[4,3-b]indole-5-carboxamide]",> 100,18.2
"O=C(NCc1ccnc(Cl)c1)n1c2c(c3cccc(Cl)c31)CN(C/C=C/c1ccc(Cl)cc1)CC2 [Example 267, (E)-6-chloro-2-(3-(4-chlorophenyl)allyl)-N-((2-chloropyridin-4-yl)methyl)-1,2,3,4-tetrahydro-5H-pyrido[4,3-b]indole-5-carboxamide]",> 100,10
"O=C(NCc1ccnc(Cl)c1)n1c2c(c3cccc(Cl)c31)CN(C/C=C/c1ccc(Cl)c(Cl)c1)CC2 [Example 268, (E)-6-chloro-N-((2-chloropyridin-4-yl)methyl)-2-(3-(3,4-dichlorophenyl)allyl)-1,2,3,4-tetrahydro-5H-pyrido[4,3-b]indole-5-carboxamide]",> 100,10
